Results reported in the supplement of paper PMC8967900.

What was measured:
Experiment in all cases: selective drug sensitivity score (sDSS, relative to normal bone marrow) (sDSS (score)); higher = more potent and effective on the cell line relative to normal bone marrow cells
Conditions in all cases: 72 h
NALM-16 = tested on: NALM-16
SUP-B15 = tested on: SUP-B15
COG-LL-319h = tested on: COG-LL-319h
KASUMI-9 = tested on: KASUMI-9
PF-382 = tested on: PF-382
MHH-CALL-3 = tested on: MHH-CALL-3
MOLT-16 = tested on: MOLT-16
CCRF-HSB2 = tested on: CCRF-HSB2
RPMI-8402 = tested on: RPMI-8402
REH = tested on: REH
HAL-01 = tested on: HAL-01
MHH-CALL-2 = tested on: MHH-CALL-2
380 = tested on: 380
CCRF-CEM = tested on: CCRF-CEM
KASUMI-10 = tested on: KASUMI-10
P30-OHKUBO = tested on: P30-OHKUBO
COG-LL-402h = tested on: COG-LL-402h
MN-60 = tested on: MN-60
RCH-ACV = tested on: RCH-ACV
COG-LL-394h = tested on: COG-LL-394h
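Also: ALL cell lines in 384-well plates, five doses spanning 10,000-fold, each plate scaled between vehicle and 100 µmol/L benzalkonium chloride controls, sDSS an adapted area-under-curve metric.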

SMILES | selective drug sensitivity score (NALM-16) | selective drug sensitivity score (SUP-B15) | selective drug sensitivity score (COG-LL-319h) | selective drug sensitivity score (KASUMI-9) | selective drug sensitivity score (PF-382) | selective drug sensitivity score (MHH-CALL-3) | selective drug sensitivity score (MOLT-16) | selective drug sensitivity score (CCRF-HSB2) | selective drug sensitivity score (RPMI-8402) | selective drug sensitivity score (REH) | selective drug sensitivity score (HAL-01) | selective drug sensitivity score (MHH-CALL-2) | selective drug sensitivity score 380 | selective drug sensitivity score (CCRF-CEM) | selective drug sensitivity score (KASUMI-10) | selective drug sensitivity score (P30-OHKUBO) | selective drug sensitivity score (COG-LL-402h) | selective drug sensitivity score (MN-60) | selective drug sensitivity score (RCH-ACV) | selective drug sensitivity score (COG-LL-394h)
COc1cc2nccc(Oc3ccc(NC(=O)C4(C(=O)Nc5ccc(F)cc5)CC4)cc3)c2cc1OC [Cabozantinib] (top concentration 1000 nM) | 2.68 | 13.5 | -2.22 | -3.62 | -3.62 | -3.62 | -3.62 | 1.98 | -1.62 | 4.58 | 3.88 | -3.62 | -3.62 | -3.62 | 14.1 | -3.62 | -3.62 | -3.62 | -3.62 | 0.18
CCCCCOC(=O)Nc1nc(=O)n([C@@H]2O[C@H](C)[C@@H](O)[C@H]2O)cc1F [Capecitabine] (top concentration 10000 nM) | -0.06 | -0.06 | -0.06 | -0.06 | -0.06 | -0.06 | -0.06 | -0.06 | -0.06 | -0.06 | 0.44 | 1.04 | -0.06 | -0.06 | -0.06 | -0.06 | -0.06 | -0.06 | -0.06 | -0.06
Nc1nc(Cl)nc2c1ncn2[C@H]1C[C@H](O)[C@@H](CO)O1 [Cladribine] (top concentration 1000 nM) | -8.24 | 9.36 | 7.76 | 7.76 | -5.54 | 11.7 | 1.06 | -0.04 | -4.74 | -2.64 | -0.14 | 4.66 | 7.56 | 5.16 | 5.26 | 8.06 | 3.66 | -6.44 | 5.76 | -16
CCN(CC)CCOc1ccc(/C(=C(/Cl)c2ccccc2)c2ccccc2)cc1 [Clomifene] (top concentration 10000 nM) | -2.88 | 0.12 | -0.48 | 1.72 | 0.72 | 6.52 | 0.92 | 1.52 | 0.32 | 0.72 | 4.32 | 4.12 | 1.42 | -0.08 | -1.78 | 3.22 | -0.88 | -0.18 | 3.22 | -0.08
CO[C@@H](C(=O)N1Cc2[nH]nc(NC(=O)c3ccc(N4CCN(C)CC4)cc3)c2C1)c1ccccc1 [Danusertib] (top concentration 10000 nM) | -0.96 | 18.6 | 19 | 15.5 | 6.24 | 13.8 | 22.4 | 19.8 | 6.54 | 16.5 | -2.56 | 11.7 | 22.4 | 18.5 | 13.8 | 20 | 11.5 | -0.36 | 17.9 | 2.64
CC[C@@](C)(Nc1ccnc(-c2c[nH]c3ncccc23)n1)C(=O)NCC(F)(F)F [Decernotinib] (top concentration 10000 nM) | -3.94 | -3.94 | -3.94 | -3.74 | -3.94 | -1.94 | -3.94 | 1.16 | -3.44 | -3.94 | -3.94 | -3.94 | 2.56 | -3.94 | -3.84 | -3.94 | -3.94 | -3.94 | -3.14 | -3.94
CN1CCN(c2ccc3nc(-c4c(N)c5c(F)cccc5[nH]c4=O)[nH]c3c2)CC1 [Dovitinib] (top concentration 10000 nM) | 0.96 | 0.26 | -0.14 | 0.56 | -0.14 | -0.14 | -0.14 | 1.86 | -0.14 | -0.14 | -0.14 | -0.14 | -0.14 | 0.26 | 6.46 | 0.36 | 2.96 | -0.14 | 0.46 | 1.36
CC(C)(O)CNc1nc(Nc2ccnc(C(F)(F)F)c2)nc(-c2cccc(C(F)(F)F)n2)n1 [Enasidenib] (top concentration 10000 nM) | -0.8 | -0.3 | 2 | -0.8 | -0.1 | 0.8 | 0.1 | -0.1 | 0.4 | -0.8 | -0.8 | -0.4 | -0.8 | -0.1 | -0.8 | 1.2 | -0.7 | -0.8 | 2.2 | 1.7
CN1CCN(c2ccc(C(=O)Nc3n[nH]c4ccc(Cc5cc(F)cc(F)c5)cc34)c(NC3CCOCC3)c2)CC1 [Entrectinib] (top concentration 1000 nM) | 0.5 | -0.7 | -1.2 | -1.1 | -1.2 | -1.2 | -1.2 | 0.9 | -1.2 | -1.2 | 0 | -0.8 | -1.2 | -1.2 | 3.2 | -1.1 | -0.7 | -1.2 | -1.2 | 0.2
CNC(=O)c1ccc(N2C(=S)N(c3ccc(C#N)c(C(F)(F)F)c3)C(=O)C2(C)C)cc1F [Enzalutamide] (top concentration 10000 nM) | -0.82 | 3.38 | 1.58 | -0.82 | 0.18 | -0.82 | 1.48 | -0.52 | 0.48 | -0.82 | -0.82 | -0.12 | -0.82 | -0.52 | -0.82 | -0.52 | 0.68 | -0.22 | -0.72 | -0.32
Cn1cc(C2=C(c3cn(C4CCN(Cc5ccccn5)CC4)c4ccccc34)C(=O)NC2=O)c2ccccc21 [Enzastaurin] (top concentration 10000 nM) | 5.56 | 4.86 | 2.26 | 4.36 | 3.36 | 3.86 | 4.66 | 5.06 | 5.86 | 3.66 | -0.34 | 0.66 | 3.96 | 5.06 | 4.56 | 3.46 | 5.16 | 5.16 | 2.36 | 6.86
NS(=O)(=O)NCCNc1nonc1/C(=N/O)Nc1ccc(F)c(Br)c1 [Epacadostat] (top concentration 10000 nM) | -0.26 | -0.26 | -0.26 | 0.74 | -0.26 | -0.26 | -0.06 | -0.26 | 0.54 | 3.34 | 0.84 | 1.64 | -0.26 | -0.26 | -0.06 | -0.06 | -0.26 | 1.44 | -0.26 | -0.26
CCOc1ccccc1-n1c(C(C)N2CCN(C(=O)COc3ccc(Cl)cc3)CC2)nc2ccccc2c1=O (stereo not given) [Erastin] (top concentration 10000 nM) | 9.34 | 14 | 19.3 | 7.74 | 21 | 24.4 | 23 | 10.6 | -5.96 | 7.04 | 18.5 | 6.34 | 24.8 | 9.34 | -4.36 | 9.54 | 7.64 | -6.86 | 17.6 | -0.76
COc1cc(OC)cc(N(CCNC(C)C)c2ccc3ncc(-c4cnn(C)c4)nc3c2)c1 [Erdafitinib] (top concentration 1000 nM) | -0.56 | -0.46 | 0.44 | 0.34 | -0.56 | 0.64 | -0.56 | 3.04 | -0.56 | 0.44 | 6.94 | 8.24 | -0.56 | -0.56 | -0.06 | 1.74 | 0.04 | -0.56 | 2.04 | -0.56
CC(C)(C)NC(=O)[C@H]1CC[C@H]2[C@@H]3CC[C@H]4NC(=O)C=C[C@]4(C)[C@H]3CC[C@]12C [Finasteride] (top concentration 10000 nM) | -0.52 | 3.08 | -0.42 | -0.12 | -0.52 | -0.52 | -0.52 | -0.52 | -0.52 | -0.52 | 1.08 | 0.98 | -0.52 | -0.52 | -0.42 | -0.52 | -0.52 | -0.52 | -0.52 | -0.52
O=c1[nH]c(=O)n([C@H]2C[C@H](O)[C@@H](CO)O2)cc1F [Floxuridine] (top concentration 10000 nM) | 10.2 | 42.4 | 26.8 | 29 | 9.82 | 26.3 | 32.8 | 4.42 | 26 | 25.8 | 23.7 | 24.2 | 37.9 | 31.1 | 29.7 | 37 | 28.2 | 10.3 | 39.1 | 3.62
CNc1nc(Nc2cn(C(C)(C)C#N)nc2C)ncc1C(F)(F)F [GNE-0877] (top concentration 1000 nM) | 0 | 0 | 0 | 0 | 0 | 0 | 0 | 0 | 0 | 0.8 | 0 | 0 | 0 | 0 | 0 | 0 | 0 | 0 | 0 | 0
CCCc1cc(C)[nH]c(=O)c1CNC(=O)c1cc(-c2ccnc(N3CCN(C)CC3)c2)cc2c1cnn2C(C)C [GSK343] (top concentration 1000 nM) | 0 | 0 | 0 | 0 | 0 | 0 | 0 | 0 | 0 | 0 | 0 | 0 | 0 | 0 | 0 | 0 | 0 | 0 | 0 | 0.1
